Laboratory results taken from US20040248909A1, “Adenosine a1 receptor antagonist for treating hypoxia-induced learning memory impairment” (priority 2001, published 2004).

What was measured:
CA1 pyramidal cells [1] = assay: Sch-CA1 synaptic transmission (EPSPs) in hippocampal slices during brief hypoxia (synaptic arrest); type: cell-based, rat
Procedure: (§1) Brain slices and electrophysiology. Male Sprague-Dawley rats (150-200 gm) were anesthetized with pentobarbital and the brains were removed and cooled rapidly in aCSF solution, bubbled continuously with 95% O2 and 5% CO2. Hippocampi were sliced ([…]) and placed in oxygenated aCSF (NaCl, 124 mM; KCl 3; MgSO4 1.3; CaCl2 2.4; NaHCO3 26; NaH2PO4 1.25; and glucose 10). The CA1 pyramidal cells were recorded at 30-31° C. with sharp electrodes (tip resistance: 60-120 MΩ). Study was performed on CA1 neurons with stable resting membrane potential more negative than −70 mV. Unless otherwise mentioned, test stimuli were applied at frequency of 1 per minute (0.017 Hz). Signals were amplified with AxoClamo-2B amplifier, digitized and stored using DigiData 1200 with the P-Clamp data collection and analysis software (Axon Instruments, Inc.).
(§2) Hypoxia. Episodes of hypoxia were induced by replacing the oxygen supply with 95% N2/5% O2/5% CO2 for 3 min or 95% N2/5% CO2 for 100 s. […]
(§3) The period of hypoxia is known to block synaptic transmission of glutarmatergic inputs^8, GABAergic input^8,10 and cholinergic inputs ^11,12, causing disconnection, or synaptic ‘arrest’, of CA1 neuronal network^8. […] Effects of brief hypoxia on synaptic transmission and of agents on hypoxic responses were monitored on responses of CA1 pyramidal cells to Sch activation. […]

CA1 pyramidal cells [2] = assay: Carbachol-induced cholinergic CA1 θ field potential and intracellular θ in hippocampal slices, with or without brief hypoxia; type: cell-based, rat
Procedure: as §1
Hypoxia. Episodes of hypoxia were induced by replacing the oxygen supply with […] for 3 min or 95% N2/5% CO2 for 100 s. […] The hypoxia is milder than those used by others to produce an irreversible impairment of synaptic transmission^25.
Effects of brief hypoxia on functions of CA1 neurons were monitored on synaptic transmission, long-term potentiation (LTP) of glutamatergic EPSPs, and cholinergic θ, a memory-related neuronal activity synchronization that depends on a temporal heterosynaptic interaction. Bath application of carbachol (50 μM, 20 min), a cholinergic receptor agonist, to hippocampal slices mimicked septal activation and diffuse acetylcholine transmission and induced CA1 θ field potential (FIG. 1a; peak amplitude: 0.73±0.02 mV, n=10, p<0.05, at 7.4±0.7 Hz from background noise). The θ is sensitive to atropine blockade and lasted for more than 3h^7. The θ oscillation of membrane potential (7.5±1.0 mV; n=18; p<0.05) was also observed in CA1 pyramidal cells (intracellular θ; FIG. 1b). […] LTP of responses to schaffer collateral (Sch) glutamatergic inputs (FIG. 1c,e), however, was not reduced, but enhanced, by the hypoxia (FIG. 1d,e), consistent with reported hypoxic LTP^8 and the observation that LTP expression is not vulnerable to transient hypoxia a few minutes after hypoxia.

hypoxia rats = assay: Hidden-platform water maze spatial learning and memory in rats subjected to brief hypoxia; type: in vivo, rat; conditions: bilateral i.c.v. 400 nmoles/site
Procedure: The figure illustrates experimental protocol (FIG. 4a), escape latency (means±SEM) in water maze training (FIG. 4b) across 12 trials (F11,312=50.14, p<0.0001), and quadrant preference (FIGS. 4c, 4d and 4e) conducted at the end of the twelfth training session, and swimming distance (in 1 min; FIG. 4f). Rats were either subjected to air or hypoxia (95% N2/5% CO2 for 100 s) about 30 min in a glass jar after the 2nd-or 4th trial of the day. Bilateral i.c.v. CPDPX (400 nmoles/site) or vehicle were administered before the 2nd and 4th trials of the day. Quadrant 4 is the target quadrant during training.
Spatial maze tasks. Male adult Wistar rats (200-250 gm) were anesthetized with sodium pentobarbital (60 mg/kg, i.p) and placed in a stereotactic apparatus (Kopf Instruments, Tujunga, Calif.). Two stainless steel guide cannulas were placed with the tips positioned at the coordinates (anterior-posterior, 0.5 mm; lateral, 1.5 mm; horizontal, 3.2 mm), under aseptic conditions. A 7-day recovery period was allowed before any further experimentation. All rats were randomly assigned to different groups (10 each) and swam for 2 min in a 1.5 m (diameter)×0.6 m (depth) pool (22±1° C.). […]
One of the most persistent consequences of transient hypoxia/ischemia is amnesia. Effects of brief hypoxia and CPDPX on spatial learning (FIG. 4a) were evaluated in rats, using a hidden-platform water maze. […]

adenosine A1 receptor = molecular target: T1, adenosine A1 receptor (Rattus norvegicus, UniProt P25099); conditions: cited from earlier work
T1 sequence (P25099 1-326): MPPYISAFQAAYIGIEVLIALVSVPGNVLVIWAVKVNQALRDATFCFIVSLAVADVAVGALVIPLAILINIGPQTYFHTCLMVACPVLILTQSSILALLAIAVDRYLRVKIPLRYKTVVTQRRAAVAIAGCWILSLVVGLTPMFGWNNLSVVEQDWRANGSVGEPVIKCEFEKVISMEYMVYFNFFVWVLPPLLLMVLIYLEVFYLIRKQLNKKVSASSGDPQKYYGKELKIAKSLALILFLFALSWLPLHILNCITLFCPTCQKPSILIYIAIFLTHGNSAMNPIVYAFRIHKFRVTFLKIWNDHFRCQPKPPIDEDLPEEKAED

CA1 pyramidal cells [3] = assay: Membrane response of CA1 pyramidal cells to local application of glutamate; type: cell-based, rat; conditions: 20 μl of 10 mM
Procedure: as §1, §2, §3

Compound: CCCn1c(=O)c2[nH]c(C3CCCC3)nc2n(CCC)c1=O [CPDPX, 8-cyclopentyl-1,3-dipropylxanthine]
- synaptic transmission at the end of the hypoxia versus control 100% (CA1 pyramidal cells [1]; Sch-CA1 EPSPs, brief hypoxia 5% O2 3 min, 10 μM, n=7, p>0.05): 99.2±2.4%
- effect on hypoxic synaptic arrest (CA1 pyramidal cells [1]; end of 3 min hypoxia, citicoline 100 μM, 8-cyclopentyl-1,3-dipropylxanthine 10 μM): synaptic arrest was abolished
- intracellular θ after brief hypoxia (versus pre-hypoxia) (CA1 pyramidal cells [2]; in presence of CPDPX, CA1 pyramidal cells, n=8, p>0.05): 99.6±3.0%
- θ activity after brief hypoxia (versus pre-hypoxia) (CA1 pyramidal cells [2]; in presence of CPDPX, carbachol-induced CA1 θ, n=6, p>0.05): 100.2±3.2%
- quadrant preference in quadrant test (hypoxia rats; 24 hrs after last training trial, F3,36=169.7, p<0.0001): showed a preference for the target quadrant
- effect on hypoxic impairment of spatial memory (escape latency) (hypoxia rats; hypoxia 95% N2/5% CO2 100 s): eliminated hypoxic impairment on the spatial memory
- effect on adenosine-mediation of anoxia induced synaptic glutamate release in CA1 pyramidal neurons (adenosine A1 receptor; Katchman et al. 1996): not affected
- effect on hypoxia-induced accumulation of adenosine (adenosine A1 receptor; Pearson et al. 2000): mitigates hypoxia-induced accumulation of adenosine during hypoxia

Compound: C[N+](C)(C)CCOC(N)=O [carbachol]
- frequency of induced CA1 θ field potential (CA1 pyramidal cells [2]; bath application 50 μM, 20 min): 7.4±0.7 Hz
- induced CA1 θ field potential peak amplitude (CA1 pyramidal cells [2]; bath application 50 μM, 20 min, n=10): 0.73±0.02 mV
- θ oscillation of membrane potential (intracellular θ) (CA1 pyramidal cells [2]; carbachol 50 μM, CA1 pyramidal cells, n=18): 7.5±1.0 mV

Compound: N[C@@H](CCC(=O)O)C(=O)O [glutamate]
- peak inward current, control value (CA1 pyramidal cells [3]; local application before hypoxia): 206.8±9.7 pA
- peak inward current (CA1 pyramidal cells [3]; local application during last few seconds of 3 min hypoxia, n=7): 201.2±10.5 pA
